The results in this text go back to patent US8269017B2, “Compounds for the treatment of proliferative disorders” (Synta Pharmaceuticals Corporation, priority 2005, dated 2012).

Entries after “also recorded” stand apart in the source; their conditions may differ.

One data set has as its system MES-SA (uterine sarcoma). The data set is described as follows: In vitro cytotoxicity, MTS assay, MES-SA. It counts as cell-based, human. The conditions noted are these: Homo sapiens, MES-SA (Uterine Carcinoma), 72 hours, read-out: IC50. The method, boiled down: (§1)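 Exponentially growing cells in RPMI1640 with 10% FCS at 2.5×10^4 cells/mL were exposed to compound at final 10, 1, 0.1, 0.01 and 0.001 μM, diluted from 10 mM DMSO stock. Viability read by MTS.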
(In general: Formazan colour is commonly taken as a measure of viable cells.)

A short description of data set [1]: Body weight change in EMT6 tumor growth study. It counts as in vivo, nude mouse. On the procedure: Seven to eight week old, female Crl:CD-1-nuBR (nude) mice were obtained from Charles River Laboratories (Wilmington, Mass., USA). Animals were housed 4-5/cage in micro-isolators, with a 12 hr/12 hr light/dark cycle, acclimated for at least 1 week prior to use and fed normal laboratory chow ad libitum. Studies were conducted on animals between 8 and 10 weeks of age at implantation. To implant EMT6 tumor cells into nude mice, the cells were trypsinized as above, washed in PBS and resusupended at a concentration of 10×10^6 cells/mL in PBS. Using a 27 gauge needle and 1 cc syringe, 0.1 mL of the cell suspension was injected subcutaneously into the flank of each nude mouse. Tumor-bearing animals were given single intravenous (i.v.) bolus injections of either vehicle or Compound 174 at 10 mL per kg body weight. To measure the effect of the drug treatment on tumor growth rates, tumor volumes were measured 3 days after dosing (FIG. 22).

Data set [2] in a line: Body weight change in MDA-MB-435S xenograft study (Example 10). It is filed as in vivo, nude mouse. The conditions noted are these: Compound 169 at 2 and 1 mg/kg, Compound 174 at 4.55 and 2.28 mg/kg body weight, i.v., 1 time per week, 3 doses; Hydrochloride. On the procedure:
(§2) Seven to eight week old, female Crl:CD-1-nuBR (nude) mice were obtained from Charles River Laboratories (Wilmington, Mass., USA). Animals were housed 4-5/cage in micro-isolators, with a 12 hr/12 hr light/dark cycle, acclimated for at least 1 week prior to use and fed normal laboratory chow ad libitum. Studies were conducted on animals between 8 and 10 weeks of age at implantation. To implant MDA-MB-4355 tumor cells into nude mice, the cells were trypsinized as above, washed in PBS and resusupended at a concentration of 50×10(6) cells/ml in PBS. Using a 27 gauge needle and 1 cc syringe, 0.1 ml of the cell suspension was injected into the corpus adiposum of nude mice. The corpus adiposum is a fat body located in the ventral abdominal vicera in the right quadrant of the abdomen at the juncture of the os coxae (pelvic bone) and the os femoris (femur).
(§3) Compounds were formulated in either D5W (Compounds 169 and 174) or DRD (Compound 178). For formulations in D5W, solutions of test articles were prepared by dissolving the appropriate amounts of each compound in 5% dextrose in water (Abbott Laboratories, North Chicago, Ill., USA) by sonication in an ultrasonic water bath. For formulations in DRD, stock solutions of test articles were prepared by dissolving the appropriate amounts of each compound in dimethyl sulfoxide (DMSO) by sonication in an ultrasonic water bath. Stock solutions were prepared weekly, stored at −20° C. and diluted fresh each day for dosing. A solution of 20% Cremophore RH40 (polyoxyl 40 hydrogenated castor oil; BASF Corp., Aktiengesellschaft, Ludwigshafen, Germany) in 5% dextrose in water (Abbott Laboratories, North Chicago, Ill., USA) was also prepared by first heating 100% Cremophore RH40 at 50-60° C. until liquefied and clear, diluting 1:5 with 100% D5W, reheating again until clear and then mixing well. This solution was stored at room temperature for up to 3 months prior to use. To prepare DRD formulations for daily dosing, DMSO stock solutions were diluted 1:10 with 20% Cremophore RH40. […]

Data set [3] deals with human tumor cell line MDA-MB-435S. The data set can be described thus: Nude mouse xenograft, MDA-MB-435S (Example 10). It is filed as in vivo. The conditions noted are these: Compound 169 at 2 mg/kg, Compound 174 at 4.55 mg/kg body weight, i.v., 1 time/week, 3 doses. On the procedure: as §2
Tumors were then permitted to develop in vivo until the majority reached an average of 100-200 mm^3 in tumor volume, which typically required 2-3 weeks following implantation. […] Tumor volumes (V) were calculated by caliper measurement of the width (W), length (L) and thickness (T) of tumors using the following formula: V=0.5236×(L×W×T). Animals were randomized into treatment groups so that the median tumor volumes of each group were similar at the start of dosing. % T/C values, as a measure of efficacy, were determined as follows: • (i) If ΔT>0: % T/C=[…] • (ii) If ΔT<0: % T/C=(ΔT/T0)×100 • (iii) ΔT=Change in median tumor volume between start of dosing and the end of study. • (iv) ΔC=Change in median tumor volume between start of dosing and the end of study. • (v) T0=Median tumor volume at start of dosing.
as §3, with “use.” for “use. To prepare DRD formulations for daily dosing, DMSO stock solutions were diluted 1:10 with 20% Cremophore RH40.”

Data set [4] deals with MES-SA/DX5 (uterine sarcoma, MDR-1). The data set is described as follows: cells. It counts as cell-based. To be noted: Homo sapiens, MDR1, 72 h, MES/DX5 (MDR-1), MTS assay. The method, boiled down:
as §1

Another data set has as its system HL-60 (T-cell leukemia). The data set is described as follows: In vitro cytotoxicity, MTS assay, HL-60. It is filed as cell-based, human. To be noted: Homo sapiens, HL-60, HL60 (Leukemia), 72 hours, read-out: IC50. A digest of the protocol: as §1

For orientation: IC50 means the concentration needed to halve the response being measured. Consider `COc1ccc(-c2cnoc2-c2cc(OC)c(OC)c(OC)c2)cc1NC(=O)C(N)Cc1ccccc1.Cl` (stereo not shown) [Compound 174, 2-amino-N-(2-methoxy-5-(5-(3,4,5-trimethoxyphenyl)isoxazol-4-yl)phenyl)-3-phenylpropanamide Hydrochloride], for which the IC50 came out at 0.1 nM with MES-SA (uterine sarcoma), 0.1 nM in data set [4] and 2 nM with HL-60 (T-cell leukemia). Besides, the “largest average percent change in body weight” value in data set [1] (4.55 mg/kg body weight single i.v., one day after dosing) was −7.3%. Besides, in data set [1] (any point over the course of the study), the “body weight lost by any individual animal” value is recorded as at most 11%. In addition, the “overt toxicity (effect on body weights)” value in data set [2] is reported as “not overtly toxic; also recorded: not associated with overt toxicity”. For the same compound, the “% T/C” value in data set [3] is given as 25%.
